# Laboratory results published in publication PMC5925751 (American journal of hematology, 2017).
# Values joined by “and” are separate entries in the source; they are usually repeats but may differ in a detail not shown here. Identical values can stand only once.
# Assays:
# patients with AML [1] = experiment: Safety and tolerability; assay type: in vivo
# [2] = Pharmacokinetics, plasma AMG 900 by LC-MS/MS after multiple oral administrations; assay type: in vivo; details: human
# [3] = tested on: phosphorylated histone H3 (pHH3) in peripheral blood leukemic blasts; experiment: Pharmacodynamics: flow cytometric pHH3 assay in whole blood; assay type: in vivo, human; details: as early as 1 hour after treatment; regardless of dosing schedule; transient
# patients with AML [4] = experiment: Efficacy: objective response by Cheson response criteria; assay type: in vivo, human
# AML blasts = details: cited from earlier work
# [5] = Total, all doses and schedules (n = 35)
structure (smiles),measurement,setting,value
"Cc1csc(-c2nnc(Nc3ccc(Oc4ncccc4-c4ccnc(N)n4)cc3)c3ccccc23)c1 [AMG 900, N-(4-(3-(2-aminopyrimidin-4-yl)pyridin-2-yloxy)phenyl)-4-(4-methylthiophen-2-yl)p hthalazin-1-amine]",Treatment-related adverse events by grade: Fatal,"patients with AML [1]; 15 mg, 4 days on/10 days off (n = 4)",0 (0) n (%)
same,Treatment-related adverse events by grade: Fatal,"patients with AML [1]; 25 mg, 4 days on/10 days off (n = 3)",0 (0) n (%)
same,Treatment-related adverse events by grade: Fatal,"patients with AML [1]; 30 mg, 7 days on/7 days off (n = 3)",0 (0) n (%)
same,Treatment-related adverse events by grade: Fatal,"patients with AML [1]; 40 mg, 4 days on/10 days off (n = 7)",1 (14) n (%)
same,Treatment-related adverse events by grade: Fatal,"patients with AML [1]; 40 mg, 7 days on/7 days off (n = 4)",0 (0) n (%)
same,Treatment-related adverse events by grade: Fatal,"patients with AML [1]; 50 mg, 7 days on/7 days off (n = 6)",1 (17) n (%)
same,Treatment-related adverse events by grade: Fatal,"patients with AML [1]; 60 mg, 4 days on/10 days off (n = 4)",0 (0) n (%)
same,Treatment-related adverse events by grade: Fatal,"patients with AML [1]; 80 mg, 4 days on/10 days off (n = 3)",0 (0) n (%)
same,Treatment-related adverse events by grade: Fatal,"patients with AML [1]; 100 mg, 4 days on/10 days off (n = 1)",0 (0) n (%)
same,Grade ≥ 3 treatment-related adverse events: Device-related infection,patients with AML [1]; [5],2 (6) n (%)
same,Grade ≥ 3 treatment-related adverse events: Septic shock,patients with AML [1]; [5],2 (6) n (%)
same,Treatment-related adverse events by grade: Fatal,patients with AML [1]; [5],2 (6) n (%)
same,"Treatment-related adverse events, all grades: Mucosal inflammation",patients with AML [1]; [5],4 (11) n (%)
same,"Treatment-related adverse events, all grades: Nausea",patients with AML [1]; [5],11 (31) n (%)
same,"Treatment-related adverse events, all grades: Rash",patients with AML [1]; [5],4 (11) n (%)
same,"Treatment-related adverse events, all grades: Vomiting",patients with AML [1]; [5],6 (17) n (%)
same,maximum tolerated dose (MTD),patients with AML [1]; either dosing schedule,not formally reached
same,Any treatment-related adverse events,"patients with AML [1]; human, in vivo",30 (86) n (%)
same,Grade ≥ 3 treatment-related adverse events: Diarrhea,"patients with AML [1]; human, in vivo",2 (6) n (%)
same,Grade ≥ 3 treatment-related adverse events: Febrile neutropenia,"patients with AML [1]; human, in vivo",10 (29) n (%)
same,Grade ≥ 3 treatment-related adverse events: Pancytopenia,"patients with AML [1]; human, in vivo",2 (6) n (%)
same,Grade ≥ 3 treatment-related adverse events: Thrombocytopenia,"patients with AML [1]; human, in vivo",2 (6) n (%)
same,Treatment-related adverse events by grade: Grade ≥ 3,"patients with AML [1]; human, in vivo",16 (46) n (%)
same,Treatment-related adverse events by grade: Grade ≥ 4,"patients with AML [1]; human, in vivo",5 (14) n (%)
same,"Treatment-related adverse events, all grades: Alopecia","patients with AML [1]; human, in vivo",5 (14) n (%)
same,"Treatment-related adverse events, all grades: Diarrhea","patients with AML [1]; human, in vivo",10 (29) n (%)
same,"Treatment-related adverse events, all grades: Dyspnea","patients with AML [1]; human, in vivo",4 (11) n (%)
same,"Treatment-related adverse events, all grades: Epistaxis","patients with AML [1]; human, in vivo",4 (11) n (%)
same,"Treatment-related adverse events, all grades: Fatigue","patients with AML [1]; human, in vivo",8 (23) n (%)
same,"Treatment-related adverse events, all grades: Febrile neutropenia","patients with AML [1]; human, in vivo",10 (29) n (%)
same,median (range) duration of febrile neutropenia,"patients with AML [1]; human, in vivo","8 (1, 45) days"
same,serious treatment-related AE: device-related infection,"patients with AML [1]; human, in vivo",6%
same,serious treatment-related AE: febrile neutropenia,"patients with AML [1]; human, in vivo",26%
same,serious treatment-related AE: septic shock,"patients with AML [1]; human, in vivo",6%
same,"treatment-related AE, any grade: alopecia","patients with AML [1]; human, in vivo",14%
same,"treatment-related AE, any grade: nausea","patients with AML [1]; human, in vivo",31%
same,"treatment-related AE, any grade: vomiting","patients with AML [1]; human, in vivo",17%
same,tolerability of highest dose evaluated,patients with AML [1]; in vivo,tolerated
same,patients with serious treatment-related AEs,"patients with AML [1]; overall, 11 patients",31%
same,patients who discontinued AMG 900 treatment due to AEs,"patients with AML [1]; overall, five patients",14%
same,patients who died during the study,"patients with AML [1]; overall, nine patients, two deaths considered treatment-related",26%
same,AUC(0-t),[2]; 15 mg,1380 ng·h/mL
same,Cmax,[2]; 15 mg,501 ng/mL
same,AUC(0-t),[2]; 25 mg,2740 ng·h/mL
same,Cmax,[2]; 25 mg,951 ng/mL
same,AUC(0-t),[2]; 40 mg,4360 ng·h/mL
same,Cmax,[2]; 40 mg,1600 ng/mL
same,AUC(0-t),[2]; 60 mg,5620 ng·h/mL
same,Cmax,[2]; 60 mg,1890 ng/mL
same,AUC(0-t),[2]; 80 mg,3210 ng·h/mL
same,Cmax,[2]; 80 mg,1430 ng/mL
same,AUC(0-t),[2]; 100 mg,10200 ng·h/mL
same,Cmax,[2]; 100 mg,3670 ng/mL
same,inhibition of pHH3 expression in whole blood,[3],clear inhibition of pHH3 expression
same,objective response rate,"patients with AML [4]; all patients, any dose, either schedule, 80% confidence interval: 3%, 18%",9%
same,duration of response,"patients with AML [4]; individual values of the three responders, 1.5 months is a censored observation",3 months and 1.5 months and < 1 months
COc1cc(Nc2ncc3c(n2)-c2ccc(Cl)cc2C(c2c(F)cccc2OC)=NC3)ccc1C(=O)O [MLN8237],apoptosis of AML blasts,AML blasts,induced apoptosis
same,proliferation of AML blasts,AML blasts,inhibited proliferation
